# Measured values from ChEMBL document CHEMBL1201862, “PubChem BioAssay data set” (2004).
#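 In this assay, cells in 96-well plates receive the compound at five concentrations for 48 hours. Endpoints are linearly interpolated between the surrounding concentrations. The concentration for 50% growth inhibition is given as GI50.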 The source made the active and inactive calls. Cut-off read from the data, not from the text of the source: active = GI50 up to about 1.1 µM and inactive = higher.
# Experiments:
# Assay in all cases: growth of human tumour cells (NCI), 48 h
# 786-0 = test system: 786-0
# A498 = test system: A498
# A549 = test system: A549
# ACHN = test system: ACHN
# CAKI-1 = test system: CAKI-1
# CCRF-CEM = test system: CCRF-CEM
# COLO 205 = test system: COLO 205
# DLD-1 = test system: DLD-1
# DMS-114 = test system: DMS-114
# DMS-273 = test system: DMS-273
# EKVX = test system: EKVX
# HCC 2998 = test system: HCC 2998
# HCT-116 = test system: HCT-116
# HCT-15 = test system: HCT-15
# HL-60 = test system: HL-60
# HOP-18 = test system: HOP-18
# HOP-62 = test system: HOP-62
# HOP-92 = test system: HOP-92
# HT-29 = test system: HT-29
# IGROV-1 = test system: IGROV-1
# K562 = test system: K562
# KM-20L2 = test system: KM-20L2
# KM12 = test system: KM12
# LOX IMVI = test system: LOX IMVI
# LXFL 529 = test system: LXFL 529
# M14 = test system: M14
# M19-MEL = test system: M19-MEL
# MOLT-4 = test system: MOLT-4
# Malme-3M = test system: Malme-3M
# NCI-H226 = test system: NCI-H226
# NCI-H23 = test system: NCI-H23
# NCI-H460 = test system: NCI-H460
# NCI-H522 = test system: NCI-H522
# OVCAR-3 = test system: OVCAR-3
# OVCAR-4 = test system: OVCAR-4
# OVCAR-5 = test system: OVCAR-5
# OVCAR-8 = test system: OVCAR-8
# RPMI-8226 = test system: RPMI-8226
# RXF 393 = test system: RXF 393
# SF-268 = test system: SF-268
# SF-295 = test system: SF-295
# SF-539 = test system: SF-539
# SK-MEL-28 = test system: SK-MEL-28
# SK-MEL-2 = test system: SK-MEL-2
# SK-MEL-5 = test system: SK-MEL-5
# SK-OV-3 = test system: SK-OV-3
# SN12C = test system: SN12C
# SNB-19 = test system: SNB-19
# SNB-75 = test system: SNB-75
# SNB-78 = test system: SNB-78
# SR = test system: SR
# SW-620 = test system: SW-620
# TK-10 = test system: TK-10
# U-251 = test system: U-251
# UACC-257 = test system: UACC-257
# UACC-62 = test system: UACC-62
# UO-31 = test system: UO-31
# XF498 = test system: XF498
compound,measurement,setting,value
Oc1ccc2c3c1OC1C(=NN=C4CCC5(O)C6Cc7ccc(O)c8c7C5(CCN6CC5CC5)C4O8)CCC4(O)C(C2)N(CC2CC2)CCC314 (centres undefined),GI50,786-0,24.9 µM (inactive)
same,GI50,A498,> 42.8 µM (inactive)
same,GI50,A549,20.5 µM (inactive)
same,GI50,ACHN,> 100 µM (inactive)
same,GI50,CAKI-1,> 100 µM (inactive)
same,GI50,CCRF-CEM,22.9 µM (inactive)
same,GI50,COLO 205,19.4 µM (inactive)
same,GI50,DLD-1,46 µM (inactive)
same,GI50,DMS-114,21.6 µM (inactive)
same,GI50,DMS-273,24.9 µM (inactive)
same,GI50,EKVX,32.4 µM (inactive)
same,GI50,HCC 2998,21.5 µM (inactive)
same,GI50,HCT-116,16.6 µM (inactive)
same,GI50,HCT-15,> 100 µM
same,GI50,HL-60,16.4 µM (inactive)
same,GI50,HOP-18,> 100 µM (inactive)
same,GI50,HOP-62,30.3 µM (inactive)
same,GI50,HOP-92,21.1 µM (inactive)
same,GI50,HT-29,17.1 µM (inactive)
same,GI50,IGROV-1,> 100 µM (inactive)
same,GI50,K562,17.2 µM (inactive)
same,GI50,KM-20L2,20.2 µM (inactive)
same,GI50,KM12,19.8 µM (inactive)
same,GI50,LOX IMVI,20 µM (inactive)
same,GI50,LXFL 529,20.8 µM (inactive)
same,GI50,M14,18.3 µM (inactive)
same,GI50,M19-MEL,21.7 µM (inactive)
same,GI50,MOLT-4,23.7 µM (inactive)
same,GI50,Malme-3M,19.8 µM (inactive)
same,GI50,NCI-H226,> 100 µM (inactive)
same,GI50,NCI-H23,> 57.5 µM (inactive)
same,GI50,NCI-H460,21.6 µM (inactive)
same,GI50,NCI-H522,21.4 µM (inactive)
same,GI50,OVCAR-3,18.5 µM (inactive)
same,GI50,OVCAR-4,25.6 µM (inactive)
same,GI50,OVCAR-5,> 100 µM (inactive)
same,GI50,OVCAR-8,28.5 µM (inactive)
same,GI50,RPMI-8226,28.8 µM (inactive)
same,GI50,RXF 393,40 µM (inactive)
same,GI50,SF-268,> 50.4 µM (inactive)
same,GI50,SF-295,17 µM (inactive)
same,GI50,SF-539,27.1 µM (inactive)
same,GI50,SK-MEL-28,21.9 µM (inactive)
same,GI50,SK-MEL-2,13.9 µM (inactive)
same,GI50,SK-MEL-5,19 µM (inactive)
same,GI50,SK-OV-3,> 51.3 µM (inactive)
same,GI50,SN12C,> 41.3 µM (inactive)
same,GI50,SNB-19,52.7 µM (inactive)
same,GI50,SNB-75,41.6 µM (inactive)
same,GI50,SNB-78,62.5 µM (inactive)
same,GI50,SR,26.7 µM (inactive)
same,GI50,SW-620,20.8 µM (inactive)
same,GI50,TK-10,> 46.2 µM (inactive)
same,GI50,U-251,17.7 µM (inactive)
same,GI50,UACC-257,20.4 µM (inactive)
same,GI50,UACC-62,20.5 µM (inactive)
same,GI50,UO-31,> 100 µM (inactive)
same,GI50,XF498,19 µM (inactive)
Cc1cccc(C)c1NC(=O)C(=O)C(C#N)c1ccccc1 (centres undefined),GI50,786-0,> 100 µM (inactive)
same,GI50,A498,> 100 µM (inactive)
same,GI50,A549,> 100 µM (inactive)
same,GI50,ACHN,> 100 µM (inactive)
same,GI50,CAKI-1,> 100 µM (inactive)
same,GI50,CCRF-CEM,> 100 µM (inactive)
same,GI50,COLO 205,> 100 µM (inactive)
same,GI50,DLD-1,> 100 µM (inactive)
same,GI50,DMS-114,> 100 µM (inactive)
same,GI50,DMS-273,> 100 µM (inactive)
same,GI50,EKVX,> 100 µM (inactive)
same,GI50,HCC 2998,> 100 µM (inactive)
same,GI50,HCT-116,> 100 µM (inactive)
same,GI50,HCT-15,> 100 µM
same,GI50,HL-60,> 100 µM (inactive)
same,GI50,HOP-18,> 100 µM (inactive)
same,GI50,HOP-62,> 100 µM (inactive)
same,GI50,HOP-92,> 100 µM (inactive)
same,GI50,HT-29,> 100 µM (inactive)
same,GI50,IGROV-1,> 100 µM (inactive)
same,GI50,K562,> 100 µM (inactive)
same,GI50,KM-20L2,> 100 µM (inactive)
same,GI50,KM12,> 100 µM (inactive)
same,GI50,LOX IMVI,> 100 µM (inactive)
same,GI50,LXFL 529,> 100 µM (inactive)
same,GI50,M14,> 100 µM (inactive)
same,GI50,M19-MEL,> 100 µM (inactive)
same,GI50,MOLT-4,> 100 µM (inactive)
same,GI50,Malme-3M,> 100 µM (inactive)
same,GI50,NCI-H226,> 100 µM (inactive)
same,GI50,NCI-H23,> 100 µM (inactive)
same,GI50,NCI-H460,> 100 µM (inactive)
same,GI50,NCI-H522,> 100 µM (inactive)
same,GI50,OVCAR-3,> 100 µM (inactive)
same,GI50,OVCAR-4,> 100 µM (inactive)
same,GI50,OVCAR-5,> 100 µM (inactive)
same,GI50,OVCAR-8,> 100 µM (inactive)
same,GI50,RXF 393,> 100 µM (inactive)
same,GI50,SF-268,> 100 µM (inactive)
same,GI50,SF-295,> 100 µM (inactive)
same,GI50,SF-539,> 100 µM (inactive)
same,GI50,SK-MEL-28,> 100 µM (inactive)
same,GI50,SK-MEL-2,> 100 µM (inactive)
same,GI50,SK-MEL-5,> 100 µM (inactive)
same,GI50,SK-OV-3,> 100 µM (inactive)
same,GI50,SN12C,> 100 µM (inactive)
same,GI50,SNB-19,> 100 µM (inactive)
same,GI50,SNB-75,> 100 µM (inactive)
same,GI50,SNB-78,> 100 µM (inactive)
same,GI50,SW-620,> 100 µM (inactive)
same,GI50,TK-10,> 100 µM (inactive)
same,GI50,U-251,> 100 µM (inactive)
same,GI50,UACC-257,> 100 µM (inactive)
same,GI50,UACC-62,> 100 µM (inactive)
same,GI50,UO-31,> 100 µM (inactive)
same,GI50,XF498,> 100 µM (inactive)
